The text below walks through data of ChEMBL document CHEMBL1800031, “Gold(III) chloride catalyzed regioselective synthesis of pyrano[3,4-b]indol-1(9H)-ones and evaluation of anticancer potential towards human cervix adenocarcinoma” (Bioorg Med Chem Lett, 2011).

This experiment concerns HeLa. Briefly: Cytotoxicity against human HeLa cells after 48 hrs by MTT assay. The format is functional, cell-based. A general note: Tetrazolium assays rely on reduction of a dye to a coloured formazan, in cell work by metabolically active cells.
For the compound `CCCCn1c2ccc(OC)cc2c2cc(-c3ccccc3)oc(=O)c21`, the midpoint of inhibition, the IC50, lay at 5000 nM.

As to `O=c1oc(-c2ccccc2)cc2c1[nH]c1ccccc12`, the IC50 (commonly the concentration that gives 50% inhibition) was 19100 nM.

Compound `CCn1c2ccccc2c2cc(-c3ccccc3)oc(=O)c21` showed an IC50 of 11300 nM.

`COc1ccc2c(c1)c1cc(-c3ccccc3)oc(=O)c1n2Cc1ccccc1` yielded an IC50 of 6700 nM.

In the case of `CCn1c2ccc(OC)cc2c2cc(-c3ccccc3)oc(=O)c21`, the IC50 stood at 1200 nM.

As to `COc1ccc2[nH]c3c(=O)oc(-c4ccccc4)cc3c2c1`, the IC50 is 330 nM.

As for `CCCCc1cc2c([nH]c3ccccc32)c(=O)o1`, 2600 nM corresponded to half-maximal inhibition (IC50).

Compound `COc1ccc2c(c1)c1cc(-c3ccccc3)oc(=O)c1n2C` yielded an IC50 of 220 nM.

`CCCCn1c2ccccc2c2cc(-c3ccccc3)oc(=O)c21` gave an IC50 of 3200 nM.

As for `Cn1c2ccccc2c2cc(-c3ccccc3)oc(=O)c21`, the IC50 amounted to 1900 nM.
